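Five compound concentrations were applied to cells in 96-well plates for 48 hours; endpoints were derived by simple linear interpolation of the resulting dose-response curve. GI50 is the concentration that inhibits growth by half.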 The source made the active and inactive calls. Rule as the data show it: active = GI50 up to about 1.1 µM and inactive = higher.
Assays:
Test in all cases: NCI anticancer screen, dose series, 48 h
BT-549 = system: BT-549
KM12 = system: KM12
RPMI-8226 = system: RPMI-8226
T47D = system: T47D
OVCAR-3 = system: OVCAR-3
HOP-92 = system: HOP-92
PC-3 = system: PC-3
NCI-H460 = system: NCI-H460
SF-539 = system: SF-539
CAKI-1 = system: CAKI-1
HCT-15 = system: HCT-15
HCT-116 = system: HCT-116
MCF7 = system: MCF7
HT-29 = system: HT-29
UACC-62 = system: UACC-62
TK-10 = system: TK-10
SK-MEL-2 = system: SK-MEL-2
HOP-62 = system: HOP-62
NCI-H522 = system: NCI-H522

| Structure (SMILES) | GI50 (BT-549) | GI50 (KM12) | GI50 (RPMI-8226) | GI50 (T47D) | GI50 (OVCAR-3) | GI50 (HOP-92) | GI50 (PC-3) | GI50 (NCI-H460) | GI50 (SF-539) | GI50 (CAKI-1) | GI50 (HCT-15) | GI50 (HCT-116) | GI50 (MCF7) | GI50 (HT-29) | GI50 (UACC-62) | GI50 (TK-10) | GI50 (SK-MEL-2) | GI50 (HOP-62) | GI50 (NCI-H522) |
| --- | --- | --- | --- | --- | --- | --- | --- | --- | --- | --- | --- | --- | --- | --- | --- | --- | --- | --- | --- |
| O=c1oc2ccc(Cl)cc2cc1C1=CSC2=NCCN12 | 19.7 µM (inactive) | 19.8 µM (inactive) | 20.4 µM (inactive) | 25.3 µM (inactive) | 18.4 µM (inactive) | 22.1 µM (inactive) | 21.7 µM (inactive) | 30.3 µM (inactive) | 28.6 µM (inactive) | 44.5 µM (inactive) | 18.9 µM | 17.6 µM (inactive) | 19.6 µM (inactive) | 18.8 µM (inactive) | 19.5 µM (inactive) | 27.1 µM (inactive) | 23.3 µM (inactive) | 17.4 µM (inactive) | 18.7 µM (inactive) |
| COc1ccc(/C=C2\N=C(N3CCCC(CO)C3)NC2=O)cc1 (stereo not given) | > 100 µM (inactive) | > 100 µM (inactive) | > 100 µM (inactive) | > 100 µM (inactive) | > 100 µM (inactive) | > 100 µM (inactive) | > 100 µM (inactive) |  | > 100 µM (inactive) | > 100 µM (inactive) | > 100 µM | > 100 µM (inactive) | > 100 µM (inactive) | > 100 µM (inactive) | > 100 µM (inactive) | > 100 µM (inactive) | > 100 µM (inactive) | > 100 µM (inactive) | > 100 µM (inactive) |
| COc1ccc(N2C(=O)C3c4[nH]c5ccc([N+](=O)[O-])cc5c4C4CCC(C(C)(C)C)CC4C3C2=O)cc1 (stereo not given) | 14.5 µM (inactive) | 6.5 µM (inactive) | 13.3 µM (inactive) | 27.5 µM (inactive) | 7.29 µM (inactive) | 6.9 µM (inactive) | 5.21 µM (inactive) | 2.15 µM (inactive) | 15.2 µM (inactive) | 18.3 µM (inactive) | 14.4 µM | 3.24 µM (inactive) | 4.45 µM (inactive) | 3.96 µM (inactive) | 24 µM (inactive) | 25.2 µM (inactive) | 26.1 µM (inactive) | 24.4 µM (inactive) | 19.9 µM (inactive) |
| O=C(NC(Nc1ccc(F)cc1)(C(F)(F)F)C(F)(F)F)C(C(F)(F)F)C(F)(F)F | 18.7 µM (inactive) | 0.908 µM (active) | 8.11 µM (inactive) | 3.15 µM (inactive) | 44.3 µM (inactive) | 51.3 µM (inactive) | 4.91 µM (inactive) | 7.98 µM (inactive) | 21.4 µM (inactive) | > 54.7 µM (inactive) | 2.13 µM | 4.2 µM (inactive) | 16.7 µM (inactive) | 15.5 µM (inactive) | 0.199 µM (active) | > 24.9 µM (inactive) | 3.63 µM (inactive) | 99.1 µM (inactive) | 13.2 µM (inactive) |
| NC(=O)OCc1c(-c2ccccc2)nn(-c2ccccc2)c1COC(N)=O | > 100 µM (inactive) | > 100 µM (inactive) | > 100 µM (inactive) | > 100 µM (inactive) | > 100 µM (inactive) | > 100 µM (inactive) | > 100 µM (inactive) |  | > 100 µM (inactive) | > 100 µM (inactive) | > 100 µM | > 100 µM (inactive) | > 100 µM (inactive) | > 100 µM (inactive) | > 100 µM (inactive) | > 100 µM (inactive) | > 100 µM (inactive) |  | > 100 µM (inactive) |
| CN(CCc1ccc(Br)cc1)CCN1CCCCC1 | 24.8 µM (inactive) | 21.1 µM (inactive) | 62.5 µM (inactive) | 39.7 µM (inactive) | 36.6 µM (inactive) | 17.7 µM (inactive) | 27.2 µM (inactive) | 37.9 µM (inactive) | 27.3 µM (inactive) | 43.2 µM (inactive) | 60.5 µM | 17.7 µM (inactive) | 21.7 µM (inactive) | 12.7 µM (inactive) |  | 71.3 µM (inactive) | 24.4 µM (inactive) | 31.8 µM (inactive) | 21.6 µM (inactive) |
| C=CCC1(OC(C)=O)C2OC(=O)C1(O)OCC2O (stereo not given) | > 100 µM (inactive) | > 100 µM (inactive) | > 100 µM (inactive) | > 100 µM (inactive) | > 100 µM (inactive) |  | > 100 µM (inactive) | > 100 µM (inactive) | > 100 µM (inactive) | > 100 µM (inactive) | > 100 µM | > 100 µM (inactive) | > 100 µM (inactive) | > 100 µM (inactive) | > 59.3 µM (inactive) | > 70.8 µM (inactive) | > 100 µM (inactive) | > 100 µM (inactive) | > 100 µM (inactive) |
| COc1ccc(OC2OC(CO)C(OCc3ccccc3)C(OCc3ccccc3)C2OCc2ccccc2)cc1 (stereo not given) | > 100 µM (inactive) | 72.9 µM (inactive) | > 100 µM (inactive) | 18.8 µM (inactive) | > 100 µM (inactive) |  | 1.48 µM (inactive) | 15.8 µM (inactive) | 63.2 µM (inactive) | > 100 µM (inactive) |  | 14.8 µM (inactive) | 25.9 µM (inactive) | 9.79 µM (inactive) | > 100 µM (inactive) | > 100 µM (inactive) | > 100 µM (inactive) | > 100 µM (inactive) | 40 µM (inactive) |

— ChEMBL document CHEMBL1201862, “PubChem BioAssay data set” (2004)
